Where two headings read alike, the source gives them in different places.
Tested on: Aβ40 in conditioned medium of cells stably expressing Amyloid Precursor Protein (APP)
Assay: BACE cell-based assay: Aβ40 in conditioned medium by sandwich ELISA
Method in brief: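 Aβ40 in conditioned medium was read by time-resolved fluorescence sandwich ELISA (capture pAb40, detection biotinylated 6E10, 4° C incubations). Compounds were applied for 24 h to cells stably expressing APP, at 10 doses from 100 or 10 μM top, 0.1% DMSO. IC50 derived from percent of control.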

[1] = cell based assay data of Table 4, unit inferred, read-out: Cell Assay
[2] = cell based assay data, Table 4, unit inferred, read-out: Cell Assay

IC50 [1]	IC50 [2]	Structure (SMILES)	further results
0.0296 µM		CC(=O)N[C@@H](Cc1ccc(Cl)c(Cl)c1)[C@H](O)CN[C@H]1CC2(CCC2)Oc2ncc(CC(C)(C)C)cc21 [compound 711, N-((1S,2R)-1-((3,4-dichlorophenyl)methyl)-3-(((4′S)-6′-(2,2-dimethylpropyl)-3′,4′-dihydrospiro[cyclobutane-1,2′-pyrano[2,3-b]pyridin]-4′-yl)amino)-2-hydroxypropyl)acetamide]	
0.0529 µM		CC(=O)N[C@@H](Cc1cc2ccccc2o1)[C@H](O)CN[C@H]1CC2(CCC2)Oc2ncc(CC(C)(C)C)cc21 [compound 646, N-((1S,2R)-1-(1-benzofuran-2-ylmethyl)-3-(((4′S)-6′-(2,2-dimethylpropyl)-3′,4′-dihydrospiro[cyclobutane-1,2′-pyrano[2,3-b]pyridin]-4′-yl)amino)-2-hydroxypropyl)acetamide]	
	0.166 µM	CC(=O)N[C@@H](Cc1ccc(F)cc1)[C@H](O)CN[C@H]1CC(C)(C)Oc2c1cc(CC(C)(C)C)nc2N(C)C [compound 762]	
0.0268 µM		CC(=O)N[C@@H](Cc1cc(F)cc(F)c1)[C@H](O)CN[C@H]1CC2(CCC2)Oc2c1cc(CC(C)(C)C)nc2N(C)C [compound 598]	
	0.00233 µM	CC(=O)N[C@@H](Cc1cc(Cl)ccc1F)[C@H](O)CN[C@H]1CC2(CCC2)Oc2ncc(CC(C)(C)C)cc21 [compound 867]	
0.0518 µM		CC(=O)N[C@@H](Cc1ccc(Cl)cc1)[C@H](O)CN[C@H]1C[C@]2(CCOC2)Oc2ncc(CC(C)(C)C)cc21 [compound 670, N-((1S,2R)-1-((4-chlorophenyl)methyl)-3-(((3R,4′S)-6′-(2,2-dimethylpropyl)-3′,4,4′,5-tetrahydrospiro[furan-3,2′-pyrano[2,3-b]pyridin]-4′-yl)amino)-2-hydroxypropyl)acetamide]	
≥ 10 µM		CC(=O)N[C@@H](Cc1ccc(Cl)cc1)[C@H](O)CN[C@H]1C[C@@]2(CCOC2)Oc2ncc(CC(C)(C)C)cc21 [compound 669]	
0.116 µM		CC(=O)N[C@@H](Cc1cccc(C#N)c1)[C@H](O)CN[C@H]1CC(C)(C)Oc2ccc(Br)cc21 [compound 526]	
0.272 µM		CC(=O)N[C@@H](Cc1ccc(F)cc1)[C@H](O)CN[C@H]1CC2(CCC2)Oc2ncc([C@@H](F)C(C)C)cc21 [compound 553]	
0.0112 µM		CCc1cc2c(c(N3CCOCC3)c1)OC(C)(C)C[C@@H]2NC[C@@H](O)[C@H](Cc1cccc(C#N)c1)NC(C)=O [compound 532]	
0.0294 µM		CC(=O)N[C@@H](Cc1cccc(F)c1)[C@H](O)CN[C@H]1CC2(CCC2)Nc2ccc(CC(C)(C)C)cc21 [compound 561, N-((1S,2R)-3-(((4′S)-6′-(2,2-dimethylpropyl)-3′,4′-dihydro-1′H-spiro[cyclobutane-1,2′-quinolin]-4′-yl)amino)-1-((3-fluorophenyl)methyl)-2-hydroxypropyl)acetamide]	
0.124 µM		CC(=O)N[C@@H](Cc1cccc(C#N)c1)[C@H](O)CN[C@H]1CC(C)(C)Cc2ncc(C)cc21 [compound 543]	
	0.0219 µM	CC(=O)N[C@@H](Cc1cc(F)cc(F)c1)[C@H](O)CN[C@H]1CC2(CCC2)Oc2c1cc(Cl)cc2-n1ccnc1 [compound 773]	
	0.0133 µM	CC(=O)N[C@@H](Cc1cccc(C(F)(F)F)c1)[C@H](O)CN[C@H]1CC2(CCC2)Oc2ncc(CC(C)(C)F)cc21 [compound 838]	
	0.0465 µM	CC(=O)N[C@@H](CC1CC1)[C@H](O)CN[C@H]1CC2(CCC2)Oc2ncc(CC(C)(C)C)cc21 [compound 722, N-((1S,2R)-1-(cyclopropylmethyl)-3-(((4′S)-6′-(2,2-dimethylpropyl)-3′,4′-dihydrospiro[cyclobutane-1,2′-pyrano[2,3-b]pyridin]-4′-yl)amino)-2-hydroxypropyl)acetamide]	
	0.00246 µM	CC(=O)N[C@@H](Cc1cccc(F)c1)[C@H](O)CN[C@H]1C[C@]2(C[C@H](C)C2)Oc2ncc(CC(C)(C)C)cc21 [compound 770, N-((1S,2R)-3-(((1s,3R,4′S)-6′-(2,2-dimethylpropyl)-3-methyl-3′,4′-dihydrospiro[cyclobutane-1,2′-pyrano[2,3-b]pyridin]-4′-yl)amino)-1-((3-fluorophenyl)methyl)-2-hydroxypropyl)acetamide]	
	5.37 µM	CCc1ccc2c(c1)[C@@H](NC[C@@H](O)[C@H](Cn1cccn1)NC(C)=O)CC1(CCC1)O2 [compound 734]	
0.12 µM		COCC(=O)N[C@@H](Cc1cccc(C#N)c1)[C@H](O)CN[C@H]1CC(C)(C)Oc2ccc(Br)cc21 [compound 527]	
≥ 10 µM		CC(=O)N[C@@H](Cc1ccc(F)cc1)[C@H](O)CN[C@H]1C[C@@]2(CC[C@H]2C)Oc2ncc(CC(C)(C)C)cc21 [compound 621]	
	0.0179 µM	CC(=O)N[C@@H](Cc1cc(F)c(F)c(Cl)c1)[C@H](O)CN[C@H]1CC2(CCC2)Oc2ncc(CC(C)(C)C)cc21 [compound 869]	
0.00784 µM		CC(=O)N[C@@H](Cc1ccccc1)[C@H](O)CN[C@H]1CC2(CCC2)Oc2ncc(CC(C)(C)C(F)F)cc21 [compound 652]	
0.0184 µM		CC(=O)N[C@@H](Cc1ccc(F)cc1F)[C@H](O)CN[C@H]1CC2(CCC2)Oc2ncc(CC(C)(C)C)cc21 [compound 704]	

IC50 [1]	IC50 [2]	Structure (SMILES)	further results
0.177 µM		CC(=O)N[C@@H](CC(C)C)[C@H](O)CN[C@H]1CC2(CCC2)Oc2ncc(CC(C)(C)C)cc21 [compound 538, N-((1S)-1-((1R)-2-(((4′S)-6′-(2,2-dimethylpropyl)-3′,4′-dihydrospiro[cyclobutane-1,2′-pyrano[2,3-b]pyridin]-4′-yl)amino)-1-hydroxyethyl)-3-methylbutyl)acetamide]	
	0.0331 µM	CC(=O)N[C@@H](Cc1cc(F)cc(F)c1)[C@H](O)CN[C@H]1CC2(CCC2)Oc2ncc(Br)cc21 [compound 745]	
0.00522 µM		CC(=O)N[C@@H](Cc1cccc(F)c1)[C@H](O)CN[C@H]1CC2(CCC2)Oc2cnc(CC(C)(C)C)cc21 [compound 569]	
	0.00673 µM	CC(=O)N[C@@H](Cc1cccc(F)c1)[C@H](O)CN[C@H]1CC(C)(C)Oc2cnc(CC(C)(C)C)cc21 [compound 798]	
		CCc1ccc2c(c1)[C@@H](NC[C@@H](O)[C@H](Cc1cccc(Br)c1)NC(=O)CCCCCCNC(=O)OCc1ccccc1)CC1(CCC1)O2 [Example 337]	IC50 (cells stably expressing APP, 24 h incubation with compound, Aβ40 in supernatant by sandwich ELISA, read-out: IC50 values in the cell-based assay (inhibition or reduction of Aβ40)): ≤ 5 µM
	1.8 µM	CC(=O)N[C@@H](Cc1ccc(F)cc1)[C@H](O)CN[C@H]1CC2(CCC2)Oc2ncc(Cc3ccccc3)cc21 [compound 818]	
0.0231 µM		CC(=O)N[C@@H](Cc1ccc(Cl)cc1)[C@H](O)CN[C@H]1CC2(CCC2)Oc2ncc([C@H](F)C(C)(C)C)cc21 [compound 680]	
0.0722 µM		CC(=O)N[C@@H](Cc1ccc(Cl)cc1)[C@H](O)CN[C@H]1C[C@]2(C[C@H](C)C2)Oc2ncc(CC(C)C)cc21 [compound 618, N-((1S,2R)-1-((4-chlorophenyl)methyl)-2-hydroxy-3-(((1s,3R,4′S)-3-methyl-6′-(2-methylpropyl)-3′,4′-dihydrospiro[cyclobutane-1,2′-pyrano[2,3-b]pyridin]-4′-yl)amino)propyl)acetamide]	
	1.05 µM	CC(=O)N[C@@H](Cc1cc(F)cc(F)c1)[C@H](O)CN[C@H]1CC2(CCC2)Oc2ncc(-c3nccs3)cc21 [compound 748]	
0.105 µM		CC(=O)N[C@@H](Cc1ccc(F)cc1)[C@H](O)CN[C@H]1CC2(CCC2)Nc2ccc(CC(C)(C)C)cc21 [compound 559, N-((1S,2R)-3-(((4′S)-6′-(2,2-dimethylpropyl)-3′,4′-dihydro-1′H-spiro[cyclobutane-1,2′-quinolin]-4′-yl)amino)-1-((4-fluorophenyl)methyl)-2-hydroxypropyl)acetamide]	
	0.0252 µM	CC(=O)N[C@@H](Cc1cccc(F)c1)[C@H](O)CN[C@H]1CC2(CCC2)Oc2nc(F)c(CC(C)C)cc21 [compound 855]	
0.0181 µM		CC(=O)N[C@@H](Cc1ccc(F)c(C(F)(F)F)c1)[C@H](O)CN[C@H]1CC2(CCC2)Oc2ncc(CC(C)(C)C)cc21 [compound 676]	
0.277 µM		CC(=O)N[C@@H](Cc1ccc(F)cc1)[C@H](O)CN[C@H]1CC2(CCC2)Oc2ncc(C(=O)C(C)(C)C)cc21 [compound 697]	
0.00853 µM		COc1ccc(C[C@H](NC(C)=O)[C@H](O)CN[C@H]2CC3(CCC3)Oc3ncc(CC(C)(C)C)cc32)cc1F [compound 665]	
	0.0264 µM	CC(=O)N[C@@H](Cc1cccc(F)c1)[C@H](O)CN[C@H]1CC2(CCC2)Oc2ncc(C(F)C(C)C(F)(F)F)cc21 (some centres unmarked) [compound 861]	
0.00642 µM		CC(=O)N[C@@H](Cc1cc(F)cc(F)c1)[C@H](O)CN[C@H]1CC2(CCC2)Oc2nc(F)c(CC(C)(C)C)cc21 [compound 659]	
	≥ 10 µM	CC(=O)N[C@@H](Cc1cc(F)cc(F)c1)[C@H](O)CN[C@H]1CC2(CCC2)Oc2cc(Br)ccc21 [compound 787]	
0.0117 µM		CC(=O)N[C@@H](Cc1cc(F)cc(F)c1)[C@H](O)CN[C@H]1CC2(CCC2)Nc2ccc(CC(C)(C)C)cc21 [compound 560, N-((1S,2R)-1-((3,5-difluorophenyl)methyl)-3-(((4′S)-6′-(2,2-dimethylpropyl)-3′,4′-dihydro-1′H-spiro[cyclobutane-1,2′-quinolin]-4′-yl)amino)-2-hydroxypropyl)acetamide]	
≥ 10 µM		CC(=O)N[C@@H](Cc1ccc(F)cc1)[C@H](O)CN[C@H]1C[C@@]2(CC[C@@H]2C)Oc2ncc(CC(C)(C)C)cc21 [compound 625]	
	≥ 10 µM	C=CC[C@H](NC(C)=O)[C@@H](O)CN[C@H]1CC2(CCC2)Oc2ncc(CC(C)(C)C)cc21 [compound 737, N-((1S)-1-((1S)-2-(((4′S)-6′-(2,2-dimethylpropyl)-3′,4′-dihydrospiro[cyclobutane-1,2′-pyrano[2,3-b]pyridin]-4′-yl)amino)-1-hydroxyethyl)-3-buten-1-yl)acetamide]	
	0.00398 µM	CC(=O)N[C@@H](Cc1cccc(C(F)(F)F)c1)[C@H](O)CN[C@H]1CC2(CCC2)Oc2ncc(CC(C)(C)C)cc21 [compound 718]	
	0.137 µM	CC(=O)N[C@@H](Cc1ccc(F)c(F)c1F)[C@H](O)CN[C@H]1CC2(CCC2)Oc2ncc(CC(C)C)cc21 [compound 816]	
